Legend:
[1] = test system: TRZAWR (Wheat, Winter, cv Riband); assay: Postemergence herbicidal evaluation; format: in vivo, Triticum aestivum; conditions: postemergence
In short: (§1)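 Scores (0–9) reflect plant stand, vigor, malformation, size, chlorosis and general appearance relative to control, read 4 to 5 weeks after treatment and averaged where tests were repeated. Application: about 0.0156–0.500 kg/ha sprayed at 40 psi onto two-week seedlings.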

CASOB (Sicklepod) = assay: Preemergence herbicidal evaluation; format: in vivo, Cassia obtusifolia; conditions: preemergence, rated 4-5 weeks after treatment, 0-9 scale
In short: (§2)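 Test compound, dissolved in aqueous acetone, was sprayed over planted soil cups at an equivalent of about 0.0156 to 0.500 kg/ha; seeds had been mixed with potting soil. Greenhouse growth followed, with visual 0-9 scoring of injury at four to five weeks.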

AMBEL (Ragweed, Common) = assay: Postemergence herbicidal evaluation; format: in vivo, Ambrosia artemisifolia; conditions: postemergence
In short: as §1

ECHCG (Barnyardgrass) [2] = assay: Postemergence herbicidal evaluation; format: in vivo, Echinochloa crus-galli; conditions: postemergence
In short: as §1

ABUTH (Velvetleaf) = assay: Postemergence herbicidal evaluation; format: in vivo, Abutilon theophrasti; conditions: postemergence
In short: as §1

[3] = test system: GLXMAW (Soybean, Williams); assay: Postemergence herbicidal evaluation; format: in vivo, Glycine max, (L.) Merr. cv Williams; conditions: postemergence
In short: as §1

SETVI (Foxtail, Green) = assay: Postemergence herbicidal evaluation; format: in vivo, Setaria viridis; conditions: postemergence
In short: as §1

GALAP (Galium) = assay: Preemergence herbicidal evaluation; format: in vivo, Galium aparine; conditions: preemergence, rated 4-5 weeks after treatment, 0-9 scale
In short: as §2

ZEAMX (Corn, Field) = assay: Preemergence herbicidal evaluation; format: in vivo, Zea mays; conditions: preemergence, rated 4-5 weeks after treatment, 0-9 scale
In short: as §2

[4] = test system: CHEAL (Lambsquarters, Common); assay: Preemergence herbicidal evaluation; format: in vivo, Chenopodium album; conditions: preemergence, rated 4-5 weeks after treatment, 0-9 scale
In short: as §2

[5] = test system: ECHORC (Watergrass (Calif.)); assay: Postemergence weed control under flooded paddy conditions; format: in vivo, Echinochloa oryzoides; conditions: postemergence weeds, rated 3 to 4 weeks after treatment
In short: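 Injury ratings (0–9 scale covering stand, vigor, malformation, size, chlorosis and overall appearance versus control) were made three to four weeks after treatment. Test material, about 0.0313 to 0.500 kg/ha a.i. in 50/50 v/v aqueous/acetone, was added to flood water 1.5 to 3 cm deep over 3 to 5 cm weeds and 1.5 to 2.5 leaf rice.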

ECHCG (Barnyardgrass) [6] = assay: Preemergence herbicidal evaluation; format: in vivo, Echinochloa crus-galli; conditions: preemergence, rated 4-5 weeks after treatment, 0-9 scale
In short: as §2

[7] = test system: IPOHE (Morningglory, Ivyleaf); assay: Preemergence herbicidal evaluation; format: in vivo, Ipomoea hederacea; conditions: preemergence, rated 4-5 weeks after treatment, 0-9 scale
In short: as §2

[8] = test system: IPOHE (Morningglory, Ivyleaf); assay: Postemergence herbicidal evaluation; format: in vivo, Ipomoea hederacea; conditions: postemergence
In short: as §1

CN1C(=O)C(CC(=O)NS(C)(=O)=O)SC1=Nc1cc(-n2c(=O)cc(C(F)(F)F)n(C)c2=O)c(F)cc1Cl (stereo not shown) [Compound 97, 2-{{2-Chloro-5-[3,6-dihydro-3-methyl-2,6-dioxo-4-(trifluoromethyl)-1(2H)-pyrimidinyl]-4-fluorophenyl}imino}-3-methyl-N-(methylsulfonyl)-4-oxo-5-thiazolidineacetamide]
TRZAWR herbicidal rating ([1]; rate 0.0156 kg/ha): 1.0
TRZAWR herbicidal rating ([1]; rate 0.0313 kg/ha): 1.5
TRZAWR herbicidal rating ([1]; rate 0.0625 kg/ha): 2.5
TRZAWR herbicidal rating ([1]; rate 0.1250 kg/ha): 4.0
CASOB rating (CASOB (Sicklepod); 0.1250 kg/ha): 0.0
CASOB rating (CASOB (Sicklepod); 0.2500 kg/ha): 1.0
CASOB rating (CASOB (Sicklepod); 0.5000 kg/ha): 3.0
AMBEL herbicidal rating (AMBEL (Ragweed, Common); rate 0.0156 kg/ha): 0.0
AMBEL herbicidal rating (AMBEL (Ragweed, Common); rate 0.0313 kg/ha): 1.0
AMBEL herbicidal rating (AMBEL (Ragweed, Common); rate 0.0625 kg/ha): 4.0
AMBEL herbicidal rating (AMBEL (Ragweed, Common); rate 0.1250 kg/ha): 7.0
ECHCG herbicidal rating (ECHCG (Barnyardgrass) [2]; rate 0.0156 kg/ha): 1.0
ECHCG herbicidal rating (ECHCG (Barnyardgrass) [2]; rate 0.0313 kg/ha): 1.0
ECHCG herbicidal rating (ECHCG (Barnyardgrass) [2]; rate 0.0625 kg/ha): 3.0
ECHCG herbicidal rating (ECHCG (Barnyardgrass) [2]; rate 0.1250 kg/ha): 6.0
ABUTH herbicidal rating (ABUTH (Velvetleaf); rate 0.0156 kg/ha): 4.0
ABUTH herbicidal rating (ABUTH (Velvetleaf); rate 0.0313 kg/ha): 4.0
ABUTH herbicidal rating (ABUTH (Velvetleaf); rate 0.0625 kg/ha): 7.0
ABUTH herbicidal rating (ABUTH (Velvetleaf); rate 0.1250 kg/ha): 9.0
GLXMAW herbicidal rating ([3]; rate 0.0156 kg/ha): 4.5
GLXMAW herbicidal rating ([3]; rate 0.0313 kg/ha): 4.0
GLXMAW herbicidal rating ([3]; rate 0.0625 kg/ha): 5.5
GLXMAW herbicidal rating ([3]; rate 0.1250 kg/ha): 6.5
SETVI herbicidal rating (SETVI (Foxtail, Green); rate 0.0156 kg/ha): 1.0
SETVI herbicidal rating (SETVI (Foxtail, Green); rate 0.0313 kg/ha): 6.0
SETVI herbicidal rating (SETVI (Foxtail, Green); rate 0.0625 kg/ha): 9.0
SETVI herbicidal rating (SETVI (Foxtail, Green); rate 0.1250 kg/ha): 9.0
GALAP rating (GALAP (Galium); 0.1250 kg/ha): 1.0
GALAP rating (GALAP (Galium); 0.2500 kg/ha): 0.0
GALAP rating (GALAP (Galium); 0.5000 kg/ha): 5.0
ZEAMX rating (ZEAMX (Corn, Field); 0.1250 kg/ha): 0.0
ZEAMX rating (ZEAMX (Corn, Field); 0.2500 kg/ha): 0.0
ZEAMX rating (ZEAMX (Corn, Field); 0.5000 kg/ha): 4.0
CHEAL rating ([4]; 0.1250 kg/ha): 7.0
CHEAL rating ([4]; 0.2500 kg/ha): 9.0
CHEAL rating ([4]; 0.5000 kg/ha): 9.0
Herbicidal rating ECHORC ([5]; Rate 0.0313 kg/ha): 0.0
Herbicidal rating ECHORC ([5]; Rate 0.0625 kg/ha): 0.0
Herbicidal rating ECHORC ([5]; Rate 0.1250 kg/ha): 2.0
Herbicidal rating ECHORC ([5]; Rate 0.2500 kg/ha): 3.0
ECHCG rating (ECHCG (Barnyardgrass) [6]; 0.1250 kg/ha): 0.0
ECHCG rating (ECHCG (Barnyardgrass) [6]; 0.2500 kg/ha): 0.0
ECHCG rating (ECHCG (Barnyardgrass) [6]; 0.5000 kg/ha): 0.0
IPOHE rating ([7]; 0.1250 kg/ha): 1.0
IPOHE rating ([7]; 0.2500 kg/ha): 9.0
IPOHE rating ([7]; 0.5000 kg/ha): 9.0
IPOHE herbicidal rating ([8]; rate 0.0156 kg/ha): 7.0
IPOHE herbicidal rating ([8]; rate 0.0313 kg/ha): 9.0
IPOHE herbicidal rating ([8]; rate 0.0625 kg/ha): 9.0
IPOHE herbicidal rating ([8]; rate 0.1250 kg/ha): 9.0

C=CCN1C(=O)C(CC(N)=O)SC1=Nc1cc(-n2c(=O)cc(C(F)(F)F)n(C)c2=O)c(F)cc1Cl (stereo not shown) [Compound 99, 3-Allyl-2-{{2-chloro-5-[3,6-dihydro-3-methyl-2,6-dioxo-4-(trifluoromethyl)-1(2H)-pyrimidinyl]-4-fluorophenyl}imino}-4-oxo-5-thiazolidineacetamide]
herbicidal rating TRZAWR ([1]; rate 0.0156 kg/ha): 4.0
herbicidal rating TRZAWR ([1]; rate 0.0313 kg/ha): 4.5
TRZAWR herbicidal rating ([1]; rate 0.0625 kg/ha): 5.5
TRZAWR herbicidal rating ([1]; rate 0.1250 kg/ha): 6.5
CASOB rating (CASOB (Sicklepod); 0.0156 kg/ha): 0.0
CASOB rating (CASOB (Sicklepod); 0.0625 kg/ha): 1.0
CASOB rating (CASOB (Sicklepod); 0.1250 kg/ha): 2.0
CASOB rating (CASOB (Sicklepod); 0.2500 kg/ha): 3.0
CASOB rating (CASOB (Sicklepod); 0.5000 kg/ha): 7.0
herbicidal rating AMBEL (AMBEL (Ragweed, Common); rate 0.0156 kg/ha): 9.0
herbicidal rating AMBEL (AMBEL (Ragweed, Common); rate 0.0313 kg/ha): 9.0
AMBEL herbicidal rating (AMBEL (Ragweed, Common); rate 0.0625 kg/ha): 9.0
AMBEL herbicidal rating (AMBEL (Ragweed, Common); rate 0.1250 kg/ha): 9.0
herbicidal rating ECHCG (ECHCG (Barnyardgrass) [2]; rate 0.0156 kg/ha): 4.0
herbicidal rating ECHCG (ECHCG (Barnyardgrass) [2]; rate 0.0313 kg/ha): 4.0
ECHCG herbicidal rating (ECHCG (Barnyardgrass) [2]; rate 0.0625 kg/ha): 7.0
ECHCG herbicidal rating (ECHCG (Barnyardgrass) [2]; rate 0.1250 kg/ha): 6.0
herbicidal rating ABUTH (ABUTH (Velvetleaf); rate 0.0156 kg/ha): 9.0
herbicidal rating ABUTH (ABUTH (Velvetleaf); rate 0.0313 kg/ha): 9.0
ABUTH herbicidal rating (ABUTH (Velvetleaf); rate 0.0625 kg/ha): 9.0
ABUTH herbicidal rating (ABUTH (Velvetleaf); rate 0.1250 kg/ha): 9.0
herbicidal rating GLXMAW ([3]; rate 0.0156 kg/ha): 6.5
herbicidal rating GLXMAW ([3]; rate 0.0313 kg/ha): 7.5
GLXMAW herbicidal rating ([3]; rate 0.0625 kg/ha): 8.0
GLXMAW herbicidal rating ([3]; rate 0.1250 kg/ha): 8.0
herbicidal rating SETVI (SETVI (Foxtail, Green); rate 0.0156 kg/ha): 6.0
herbicidal rating SETVI (SETVI (Foxtail, Green); rate 0.0313 kg/ha): 7.0
SETVI herbicidal rating (SETVI (Foxtail, Green); rate 0.0625 kg/ha): 9.0
SETVI herbicidal rating (SETVI (Foxtail, Green); rate 0.1250 kg/ha): 8.0
GALAP rating (GALAP (Galium); 0.0156 kg/ha): 0.0
GALAP rating (GALAP (Galium); 0.0313 kg/ha): 0.0
GALAP rating (GALAP (Galium); 0.0625 kg/ha): 1.0
GALAP rating (GALAP (Galium); 0.1250 kg/ha): 7.0
GALAP rating (GALAP (Galium); 0.2500 kg/ha): 9.0
GALAP rating (GALAP (Galium); 0.5000 kg/ha): 7.0
ZEAMX rating (ZEAMX (Corn, Field); 0.0156 kg/ha): 0.0
ZEAMX rating (ZEAMX (Corn, Field); 0.0313 kg/ha): 0.0
ZEAMX rating (ZEAMX (Corn, Field); 0.0625 kg/ha): 1.0
ZEAMX rating (ZEAMX (Corn, Field); 0.1250 kg/ha): 2.0
ZEAMX rating (ZEAMX (Corn, Field); 0.2500 kg/ha): 6.0
ZEAMX rating (ZEAMX (Corn, Field); 0.5000 kg/ha): 7.0
CHEAL rating ([4]; 0.0156 kg/ha): 9.0
CHEAL rating ([4]; 0.0313 kg/ha): 9.0
CHEAL rating ([4]; 0.0625 kg/ha): 9.0
CHEAL rating ([4]; 0.1250 kg/ha): 9.0
CHEAL rating ([4]; 0.2500 kg/ha): 9.0
CHEAL rating ([4]; 0.5000 kg/ha): 9.0
Herbicidal rating ECHORC ([5]; Rate 0.0313 kg/ha): 0.0
Herbicidal rating ECHORC ([5]; Rate 0.0625 kg/ha): 0.0
Herbicidal rating ECHORC ([5]; Rate 0.1250 kg/ha): 0.0
Herbicidal rating ECHORC ([5]; Rate 0.2500 kg/ha): 0.0
Herbicidal rating ECHORC ([5]; Rate 0.5000 kg/ha): 4.0
ECHCG rating (ECHCG (Barnyardgrass) [6]; 0.0156 kg/ha): 0.0
ECHCG rating (ECHCG (Barnyardgrass) [6]; 0.0313 kg/ha): 0.0
ECHCG rating (ECHCG (Barnyardgrass) [6]; 0.0625 kg/ha): 0.0
ECHCG rating (ECHCG (Barnyardgrass) [6]; 0.1250 kg/ha): 1.0
ECHCG rating (ECHCG (Barnyardgrass) [6]; 0.2500 kg/ha): 1.0
ECHCG rating (ECHCG (Barnyardgrass) [6]; 0.5000 kg/ha): 7.0
IPOHE rating ([7]; 0.0156 kg/ha): 0.0
IPOHE rating ([7]; 0.0313 kg/ha): 0.0
IPOHE rating ([7]; 0.0625 kg/ha): 9.0
IPOHE rating ([7]; 0.1250 kg/ha): 9.0
IPOHE rating ([7]; 0.2500 kg/ha): 9.0
IPOHE rating ([7]; 0.5000 kg/ha): 9.0
herbicidal rating IPOHE ([8]; rate 0.0156 kg/ha): 9.0
herbicidal rating IPOHE ([8]; rate 0.0313 kg/ha): 9.0
IPOHE herbicidal rating ([8]; rate 0.0625 kg/ha): 9.0
IPOHE herbicidal rating ([8]; rate 0.1250 kg/ha): 9.0
